Test results reported in PubChem BioAssay AID2060620 (Molecular Pharmacology Branch, DTP, NCI, 2025).

Test system: 328373-195-R-J1-PDC complex spheroids, viability % test/control
Experiment: Anticancer human tumor 328373-195-R-J1-PDC patient-derived head and neck squamous carcinoma cell line growth inhibition [CLK]
Conditions: for IC50: curve of first compound; for viability, T/C: stronger effect = lower value
Method in brief: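 Patient-derived tumor cells grown as complex spheroids with HUVEC endothelial cells and mesenchymal stem cells, treated with drug combinations. Concentrations descend in half-log steps from near clinical Cmax, or from 10 microM if Cmax unknown.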

[1] = second compound 0.0316 µM, first compound 0.0316 µM
[2] = second compound 0.0316 µM, first compound 0.1 µM
[3] = second compound 0.0316 µM, first compound 0.316 µM
[4] = second compound 0.0316 µM, first compound 1 µM
[5] = second compound 0.0316 µM, first compound 3.16 µM
[6] = second compound 0.0316 µM, first compound 10 µM
[7] = second compound 0.1 µM, first compound 0.0316 µM
[8] = second compound 0.1 µM, first compound 0.1 µM
[9] = second compound 0.1 µM, first compound 0.316 µM
[10] = second compound 0.1 µM, first compound 1 µM
[11] = second compound 0.1 µM, first compound 3.16 µM
[12] = second compound 0.1 µM, first compound 10 µM
[13] = second compound 0.316 µM, first compound 0.0316 µM
[14] = second compound 0.316 µM, first compound 0.1 µM
[15] = second compound 0.316 µM, first compound 0.316 µM
[16] = second compound 0.316 µM, first compound 1 µM
[17] = second compound 0.316 µM, first compound 3.16 µM
[18] = second compound 0.316 µM, first compound 10 µM
[19] = second compound 1 µM, first compound 0.0316 µM
[20] = second compound 1 µM, first compound 0.1 µM
[21] = second compound 1 µM, first compound 0.316 µM
[22] = second compound 1 µM, first compound 1 µM
[23] = second compound 1 µM, first compound 3.16 µM
[24] = second compound 1 µM, first compound 10 µM
[25] = second compound 3.16 µM, first compound 0.0316 µM
[26] = second compound 3.16 µM, first compound 0.1 µM
[27] = second compound 3.16 µM, first compound 0.316 µM
[28] = second compound 3.16 µM, first compound 1 µM
[29] = second compound 3.16 µM, first compound 3.16 µM
[30] = second compound 3.16 µM, first compound 10 µM
[31] = second compound 10 µM, first compound 0.0316 µM
[32] = second compound 10 µM, first compound 0.1 µM
[33] = second compound 10 µM, first compound 0.316 µM
[34] = second compound 10 µM, first compound 1 µM
[35] = second compound 10 µM, first compound 3.16 µM
[36] = second compound 10 µM, first compound 10 µM
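Also: spheroids exposed to the agents for 7 days.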

CC1(C)CCC(CN2CCN(c3ccc(C(=O)NS(=O)(=O)c4ccc(NCC5CCOCC5)c([N+](=O)[O-])c4)c(Oc4cnc5[nH]ccc5c4)c3)CC2)=C(c2ccc(Cl)cc2)C1 + CN1CCN(c2cc(C(=O)Nc3cc4cc(-c5cnn(C)c5)ccc4cn3)ccn2)CC1
IC50 (second compound 0.0316 µM): 6500 nM
IC50 (second compound 0.1 µM): > 10000 nM
IC50 (second compound 0.316 µM): < 31.6 nM
IC50 (second compound 1 µM): < 31.6 nM
IC50 (second compound 3.16 µM): < 31.6 nM
IC50 (second compound 10 µM): < 31.6 nM
viability, T/C [1]: 98.7%
viability, T/C [2]: 99.3%
viability, T/C [3]: 93.3%
viability, T/C [4]: 91.4%
viability, T/C [5]: 83.8%
viability, T/C [6]: 30.1%
viability, T/C [7]: 88.8%
viability, T/C [8]: 83.2%
viability, T/C [9]: 86.4%
viability, T/C [10]: 81.8%
viability, T/C [11]: 78.2%
viability, T/C [12]: 51.5%
viability, T/C [13]: 28%
viability, T/C [14]: 34.3%
viability, T/C [15]: 33.9%
viability, T/C [16]: 31.2%
viability, T/C [17]: 33%
viability, T/C [18]: 40.4%
viability, T/C [19]: 0.22%
viability, T/C [20]: 0.22%
viability, T/C [21]: 0.21%
viability, T/C [22]: 0.14%
viability, T/C [23]: 2.75%
viability, T/C [24]: 3.03%
viability, T/C [25]: 0.09%
viability, T/C [26]: 0.14%
viability, T/C [27]: 1.25%
viability, T/C [28]: 0.12%
viability, T/C [29]: 0.11%
viability, T/C [30]: 0.15%
viability, T/C [31]: 0.11%
viability, T/C [32]: 1.97%
viability, T/C [33]: 3.19%
viability, T/C [34]: 0.16%
viability, T/C [35]: 1.92%
viability, T/C [36]: 2.43%

CC1COCCN1c1cc(C2(S(C)(=N)=O)CC2)nc(-c2ccnc3[nH]ccc23)n1 (stereo not drawn) + CN1CCN(c2cc(C(=O)Nc3cc4cc(-c5cnn(C)c5)ccc4cn3)ccn2)CC1
IC50 (second compound 0.0316 µM): 1660 nM
IC50 (second compound 0.1 µM): 1150 nM
IC50 (second compound 0.316 µM): < 31.6 nM
IC50 (second compound 1 µM): < 31.6 nM
IC50 (second compound 3.16 µM): < 31.6 nM
IC50 (second compound 10 µM): < 31.6 nM
viability, T/C [1]: 95.4%
viability, T/C [2]: 96.6%
viability, T/C [3]: 88.2%
viability, T/C [4]: 69.3%
viability, T/C [5]: 25.9%
viability, T/C [6]: 8.66%
viability, T/C [7]: 90.9%
viability, T/C [8]: 86.8%
viability, T/C [9]: 81.1%
viability, T/C [10]: 55.2%
viability, T/C [11]: 18%
viability, T/C [12]: 9.2%
viability, T/C [13]: 22.7%
viability, T/C [14]: 37.2%
viability, T/C [15]: 28.5%
viability, T/C [16]: 14.7%
viability, T/C [17]: 7.56%
viability, T/C [18]: 7.95%
viability, T/C [19]: 0.21%
viability, T/C [20]: 0.24%
viability, T/C [21]: 0.58%
viability, T/C [22]: 0.22%
viability, T/C [23]: 2.35%
viability, T/C [24]: 2.29%
viability, T/C [25]: 2.09%
viability, T/C [26]: 0.12%
viability, T/C [27]: 0.16%
viability, T/C [28]: 0.14%
viability, T/C [29]: 1.51%
viability, T/C [30]: 3.51%
viability, T/C [31]: 0.14%
viability, T/C [32]: 1.61%
viability, T/C [33]: 1.87%
viability, T/C [34]: 1.76%
viability, T/C [35]: 1.92%
viability, T/C [36]: 2.57%

NC(=O)C(=Cn1cnc(-c2cc(C(F)(F)F)cc(C(F)(F)F)c2)n1)c1cncnc1 + CN1CCN(c2cc(C(=O)Nc3cc4cc(-c5cnn(C)c5)ccc4cn3)ccn2)CC1
IC50 (second compound 0.0316 µM): 21.5 nM
IC50 (second compound 0.1 µM): 12.8 nM
IC50 (second compound 0.316 µM): < 9.49 nM
IC50 (second compound 1 µM): < 9.49 nM
IC50 (second compound 3.16 µM): < 9.49 nM
IC50 (second compound 10 µM): < 9.49 nM
viability, T/C (second compound 0.0316 µM, first compound 0.00949 µM): 78.8%
viability, T/C (second compound 0.0316 µM, first compound 0.03 µM): 38.3%
viability, T/C (second compound 0.0316 µM, first compound 0.0949 µM): 1.11%
viability, T/C (second compound 0.0316 µM, first compound 0.3 µM): 0.32%
viability, T/C (second compound 0.0316 µM, first compound 0.949 µM): 0.14%
viability, T/C (second compound 0.0316 µM, first compound 3 µM): 1.38%
viability, T/C (second compound 0.1 µM, first compound 0.00949 µM): 56.7%
viability, T/C (second compound 0.1 µM, first compound 0.03 µM): 31.2%
viability, T/C (second compound 0.1 µM, first compound 0.0949 µM): 0.33%
viability, T/C (second compound 0.1 µM, first compound 0.3 µM): 0.56%
viability, T/C (second compound 0.1 µM, first compound 0.949 µM): 0.08%
viability, T/C (second compound 0.1 µM, first compound 3 µM): 3.54%
viability, T/C (second compound 0.316 µM, first compound 0.00949 µM): 13.3%
viability, T/C (second compound 0.316 µM, first compound 0.03 µM): 1.99%
viability, T/C (second compound 0.316 µM, first compound 0.0949 µM): 1.27%
viability, T/C (second compound 0.316 µM, first compound 0.3 µM): 0.99%
viability, T/C (second compound 0.316 µM, first compound 0.949 µM): 0.07%
viability, T/C (second compound 0.316 µM, first compound 3 µM): 1.88%
viability, T/C (second compound 1 µM, first compound 0.00949 µM): 0.09%
viability, T/C (second compound 1 µM, first compound 0.03 µM): 0.12%
viability, T/C (second compound 1 µM, first compound 0.0949 µM): 2.09%
viability, T/C (second compound 1 µM, first compound 0.3 µM): 1.38%
viability, T/C (second compound 1 µM, first compound 0.949 µM): 2.09%
viability, T/C (second compound 1 µM, first compound 3 µM): 0.22%
viability, T/C (second compound 3.16 µM, first compound 0.00949 µM): 0.24%
viability, T/C (second compound 3.16 µM, first compound 0.03 µM): 1.6%
viability, T/C (second compound 3.16 µM, first compound 0.0949 µM): 0.1%
viability, T/C (second compound 3.16 µM, first compound 0.3 µM): 1.06%
viability, T/C (second compound 3.16 µM, first compound 0.949 µM): 0.12%
viability, T/C (second compound 3.16 µM, first compound 3 µM): 1.99%
viability, T/C (second compound 10 µM, first compound 0.00949 µM): 1.81%
viability, T/C (second compound 10 µM, first compound 0.03 µM): 0.08%
viability, T/C (second compound 10 µM, first compound 0.0949 µM): 0.93%
viability, T/C (second compound 10 µM, first compound 0.3 µM): 0.14%
viability, T/C (second compound 10 µM, first compound 0.949 µM): 1.29%
viability, T/C (second compound 10 µM, first compound 3 µM): 0.16%

Nc1ccccc1NC(=O)c1ccc(CNC(=O)OCc2cccnc2)cc1 + CN1CCN(c2cc(C(=O)Nc3cc4cc(-c5cnn(C)c5)ccc4cn3)ccn2)CC1
IC50 (second compound 0.0316 µM): 706 nM
IC50 (second compound 0.1 µM): 641 nM
IC50 (second compound 0.316 µM): < 31.6 nM
IC50 (second compound 1 µM): < 31.6 nM
IC50 (second compound 3.16 µM): < 31.6 nM
IC50 (second compound 10 µM): < 31.6 nM
viability, T/C [1]: 90.1%
viability, T/C [2]: 79.9%
viability, T/C [3]: 63.5%
viability, T/C [4]: 38.3%
viability, T/C [5]: 34.1%
viability, T/C [6]: 11.1%
viability, T/C [7]: 74.5%
viability, T/C [8]: 80%
viability, T/C [9]: 55.4%
viability, T/C [10]: 40.8%
viability, T/C [11]: 30%
viability, T/C [12]: 7.09%
viability, T/C [13]: 26.5%
viability, T/C [14]: 32.9%
viability, T/C [15]: 22.5%
viability, T/C [16]: 16.6%
viability, T/C [17]: 8.58%
viability, T/C [18]: 1.38%
viability, T/C [19]: 0.23%
viability, T/C [20]: 1.09%
viability, T/C [21]: 0.16%
viability, T/C [22]: 0.08%
viability, T/C [23]: 1.1%
viability, T/C [24]: 2.52%
viability, T/C [25]: 0.07%
viability, T/C [26]: 0.75%
viability, T/C [27]: 1.64%
viability, T/C [28]: 0.06%
viability, T/C [29]: 0.07%
viability, T/C [30]: 0.09%
viability, T/C [31]: 0.04%
viability, T/C [32]: 1.05%
viability, T/C [33]: 0.15%
viability, T/C [34]: 0.1%
viability, T/C [35]: 2.24%
viability, T/C [36]: 0.16%
